Measured values published in patent US20260176276A1, “COMPOUND FOR REGULATING AND CONTROLLING ACTIVITY OF 15-PGDH AND PREPARATION METHOD THEREFOR” (SCINNOHUB PHARMACEUTICAL CO., LTD, priority 2022, published 2026).
pIC50: −log10 of the molar value.

What follows are molecules tested against T1, 15-PGDH (Homo sapiens, UniProt P15428) (assay: Detection of activity of 15-PGDH kinase (enzyme inhibition, fluorescence slope)). Settings: inhibitory activity against 15-PGDH enzyme; substrates PGF2α and β-NAD; fluorescence Ex/Em=340/450.
T1 construct: purchased Sino Biological Inc. 11205-H08E
T1 sequence (P15428 1-266): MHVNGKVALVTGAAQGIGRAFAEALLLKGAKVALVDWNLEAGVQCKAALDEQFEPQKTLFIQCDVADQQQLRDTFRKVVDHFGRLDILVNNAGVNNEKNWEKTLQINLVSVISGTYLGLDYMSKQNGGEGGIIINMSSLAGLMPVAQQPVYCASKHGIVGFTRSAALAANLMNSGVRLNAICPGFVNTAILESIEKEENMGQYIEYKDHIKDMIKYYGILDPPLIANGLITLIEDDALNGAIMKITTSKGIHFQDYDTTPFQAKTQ
Assay type: biochemical
Protocol: [table] • a. A solution of pH 7.5 containing 50 mM Tris-HCl, 0.01% Tween 20 was prepared with ultrapure water as a reaction buffer; • b. A 10 mM mother liquor of the compound to be tested was prepared with DMSO, and then the reaction buffer was used to dilute the mother liquor of the compound to be tested to obtain solution 1 of the compound to be tested at a concentration of 4000 nM, and then the solution 1 of the compound to be tested was serially diluted into solutions 2-10 of the compound to be tested at 9 concentrations with a gradient difference of three-fold. 5 μL of each of solutions 1-10 of the compound to be tested was taken and added into a 384-well plate as test wells; • c. 5 μL of the reaction buffer was added to the 384-well plate as positive control and blank control wells; • d. The reaction buffer was used to prepare a 15-PGDH protein solution at a concentration of 5 ng/μL, 5 μL of the 15-PGDH protein solution was taken and added to the test wells and positive control wells, and 5 μL of the reaction buffer was added to the blank control wells at the same time, then the plate was centrifuged at 2000 rpm for 30 seconds; • e. The reaction buffer was used to prepare 5 mM R-NAD and 2 mM PGF2α, respectively, which were mixed at 1:1 by volume to obtain a substrate mixture, 10 μL of the substrate mixture was taken and added to the test wells, positive control wells and blank control wells to start the reaction; • f. The fluorescence signal value (Ex/Em=340/450) of each well was detected continuously by using a multifunctional microplate reader. • a) Continuous fluorescence signal values were analyzed by using the “kinetic calculations-slope calculation method” in the PHERAstar Data analysis software to obtain the slope of each test well; • b) The inhibition rate % was calculated by using the following formula: [formula] • c) Calculation of IC50 and plotting of inhibition rate-dose curves: IC50 values were calculated by fitting compound concentrations and corresponding inhibition rates with nonlinear regression (dose response-variable slope) via using GraphPad Prism 6.0. The formula is shown below: [formula] wherein X is a log value of a concentration of the compound, and Y is inhibition rate %.

Compound	pIC50
CCCC[S+]([O-])c1sc2nc(-c3ccccc3)n3cc(C(F)(F)F)nc3c2c1N (stereo not drawn) [Example 6]	8.00 to 8.40
CCCC[S+]([O-])c1sc2nc(-c3cnccn3)n3ccnc3c2c1N (stereo not drawn) [Example 10]	8.00 to 8.40
Nc1c([S+]([O-])C2CCCCC2)sc2nc(-c3ccccc3)n3ccnc3c12 (stereo not drawn) [Example 8]	8.00 to 8.40
CC(C)C[S+]([O-])c1sc2nc(-c3ccccc3)n3ccnc3c2c1N (stereo not drawn) [Example 25]	< 7.52
Nc1c([S+]([O-])C2CCCC2)sc2nc(-c3ccccc3)n3ccnc3c12 (stereo not drawn) [Example 7]	8.00 to 8.40
CCCC[S+]([O-])c1sc2nc(-c3ccsc3)n3ccnc3c2c1N (stereo not drawn) [Example 14]	8.40 to 8.82
CCCC[S+]([O-])c1sc2nc(-c3cccnc3)n3ccnc3c2c1N (stereo not drawn) [Example 13]	> 8.82
CCCC[S+]([O-])c1sc2nc(-c3ccccc3)n3cc(C)nc3c2c1N (stereo not drawn) [Example 5]	> 8.82
CC(C)(C)[S+]([O-])c1sc2nc(-c3ccccc3)n3ccnc3c2c1N (stereo not drawn) [Example 26]	7.82 to 8.00
CCCC[S+]([O-])c1sc2nc(-c3cnn(C)c3)n3ccnc3c2c1N (stereo not drawn) [Example 15]	8.40 to 8.82
CCCC[S+]([O-])c1sc2nc(-c3ccc4c(c3)CN(C)C4=O)n3ccnc3c2c1N (stereo not drawn) [Example 21]	8.40 to 8.82
CCCC[S+]([O-])c1sc2nc(-c3ccc(N4CCOCC4)nc3)n3ccnc3c2c1N (stereo not drawn) [Example 17]	8.00 to 8.40
CCCC[S+]([O-])c1sc2nc(-c3ncccn3)n3ccnc3c2c1N (stereo not drawn) [Example 12]	8.40 to 8.82
CCCC[S+]([O-])c1sc2nc(-c3nccs3)n3ccnc3c2c1N (stereo not drawn) [Example 11]	8.40 to 8.82
CCCC[S+]([O-])c1sc2nc(-c3ccccc3)n3cnnc3c2c1N (stereo not drawn) [Example 18]	7.82 to 8.00
CCCC[S+]([O-])c1sc2nc(-c3ccc(C(=O)O)cc3)n3ccnc3c2c1N (stereo not drawn) [Example 22]	8.40 to 8.82

The next lines start with the values.

pIC50	Compound
8.00 to 8.40	CCC(C)C[S+]([O-])c1sc2nc(-c3ccccc3)n3ccnc3c2c1N (stereo not drawn) [Example 24]
8.40 to 8.82	CCCC[S+]([O-])c1sc2nc(-c3ccncc3)n3ccnc3c2c1N (stereo not drawn) [Example 16]
8.40 to 8.82	CCCC[S+]([O-])c1sc2nc(-c3ccccc3)n3c(C)cnc3c2c1N (stereo not drawn) [Example 19]
8.00 to 8.40	CCCC[S+]([O-])c1sc2nc(-c3ccccc3)n3ccnc3c2c1N (stereo not drawn) [Example 1, 8-(butylsulfinyl)-5-phenylimidazo[1,2-c]thieno[3,2-e]pyrimidin-9-amine]
7.52 to 7.82	CCCC[S+]([O-])c1sc2nc(-c3ccccc3)n3ccnc3c2c1C (stereo not drawn) [Example 20]
7.82 to 8.00	Nc1c([S+]([O-])Cc2ccccc2)sc2nc(-c3ccccc3)n3ccnc3c12 (stereo not drawn) [Example 23]
7.82 to 8.00	Nc1c([S+]([O-])C2COC2)sc2nc(-c3ccccc3)n3ccnc3c12 (stereo not drawn) [Example 9]
8.00 to 8.40	CCCC[S+]([O-])c1sc2nc(-c3ccccc3)n3c(C)nnc3c2c1N (stereo not drawn) [Example 4, 8-(butylsulfinyl)-3-methyl-5-phenylthieno[3,2-e][1,2,4]triazolo[4,3-c]pyrimidin-9-amine]
